Measurements as given in paper PMC11203676, “Synthesis, Molecular Electron Density Theory Study, Molecular Docking, and Pharmacological Evaluation of New Coumarin–Sulfonamide–Nitroindazolyl–Triazole Hybrids as Monoamine Oxidase Inhibitors” (International Journal of Molecular Sciences, 2024).

Key:
[1] = target: T1, hBChE (BChE from human serum) (Homo sapiens, UniProt P06276); experiment: BChE inhibition, spectrophotometric method of Ellman; assay type: biochemical; details: at 10 µM concentration; ni: no inhibition; mean ± SEM (n = 3)
T1 construct: BChE from human serum; purchased Sigma Aldrich (Milan, Italy); host or cells: human serum
T1 sequence (P06276 29-602): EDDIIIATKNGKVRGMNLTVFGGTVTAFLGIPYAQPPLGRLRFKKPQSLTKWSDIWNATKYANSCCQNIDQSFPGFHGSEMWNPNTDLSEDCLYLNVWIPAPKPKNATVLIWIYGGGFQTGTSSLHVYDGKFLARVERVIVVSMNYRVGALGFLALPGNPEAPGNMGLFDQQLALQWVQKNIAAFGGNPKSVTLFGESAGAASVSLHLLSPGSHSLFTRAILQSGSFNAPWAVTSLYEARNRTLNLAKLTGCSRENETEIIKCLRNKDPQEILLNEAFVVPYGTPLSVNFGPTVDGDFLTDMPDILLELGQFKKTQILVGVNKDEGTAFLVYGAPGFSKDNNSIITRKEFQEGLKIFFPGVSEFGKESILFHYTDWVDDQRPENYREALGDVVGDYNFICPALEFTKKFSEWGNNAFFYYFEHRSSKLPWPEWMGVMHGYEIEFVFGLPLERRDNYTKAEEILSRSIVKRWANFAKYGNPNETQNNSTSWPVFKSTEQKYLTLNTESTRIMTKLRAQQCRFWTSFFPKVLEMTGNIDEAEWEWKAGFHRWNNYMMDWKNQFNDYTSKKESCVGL
Experimental: (§1) Human recombinant AChE, BChE from human serum, and human MAOs from baculovirus-infected insect cells were purchased from Sigma Aldrich (Milan, Italy). […] All experiments were carried out in triplicate and results expressed as mean ± SEM.
(§2) AChE/BChE and MAO A/B inhibition were, respectively, determined with the spectrophotometric method of Ellman, and a fluorimetric method using kynuramine as MAO substrate, as previously described.

[2] = target: T2, hAChE (human recombinant AChE) (Homo sapiens, UniProt P22303); experiment: biochemical
T2 construct: purchased Sigma Aldrich (Milan, Italy)
T2 sequence (P22303 32-614): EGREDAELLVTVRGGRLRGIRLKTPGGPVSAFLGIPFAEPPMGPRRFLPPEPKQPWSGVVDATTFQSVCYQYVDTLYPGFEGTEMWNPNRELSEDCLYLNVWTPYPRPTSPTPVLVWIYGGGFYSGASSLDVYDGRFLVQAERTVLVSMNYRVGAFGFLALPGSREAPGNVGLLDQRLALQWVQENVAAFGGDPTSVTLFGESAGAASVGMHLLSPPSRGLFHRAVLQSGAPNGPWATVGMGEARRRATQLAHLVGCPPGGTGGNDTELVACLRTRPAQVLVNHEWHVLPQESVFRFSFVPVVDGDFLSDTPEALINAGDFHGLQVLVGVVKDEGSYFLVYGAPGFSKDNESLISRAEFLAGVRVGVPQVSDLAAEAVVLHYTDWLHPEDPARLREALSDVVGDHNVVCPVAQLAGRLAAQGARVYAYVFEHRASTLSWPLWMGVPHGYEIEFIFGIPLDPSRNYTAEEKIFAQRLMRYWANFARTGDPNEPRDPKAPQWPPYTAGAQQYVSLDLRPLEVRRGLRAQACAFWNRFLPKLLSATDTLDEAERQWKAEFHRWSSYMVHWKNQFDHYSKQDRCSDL
Experimental: as §1, §2

hMAO-A = target: T3, hMAO-A (Homo sapiens, UniProt P21397); experiment: biochemical; details: for inhibition at 10 µM: read-out: hMAO-A % Inhibition
T3 construct: purchased Sigma Aldrich (Milan, Italy); host or cells: baculovirus-infected insect cells
T3 sequence (P21397 1-527): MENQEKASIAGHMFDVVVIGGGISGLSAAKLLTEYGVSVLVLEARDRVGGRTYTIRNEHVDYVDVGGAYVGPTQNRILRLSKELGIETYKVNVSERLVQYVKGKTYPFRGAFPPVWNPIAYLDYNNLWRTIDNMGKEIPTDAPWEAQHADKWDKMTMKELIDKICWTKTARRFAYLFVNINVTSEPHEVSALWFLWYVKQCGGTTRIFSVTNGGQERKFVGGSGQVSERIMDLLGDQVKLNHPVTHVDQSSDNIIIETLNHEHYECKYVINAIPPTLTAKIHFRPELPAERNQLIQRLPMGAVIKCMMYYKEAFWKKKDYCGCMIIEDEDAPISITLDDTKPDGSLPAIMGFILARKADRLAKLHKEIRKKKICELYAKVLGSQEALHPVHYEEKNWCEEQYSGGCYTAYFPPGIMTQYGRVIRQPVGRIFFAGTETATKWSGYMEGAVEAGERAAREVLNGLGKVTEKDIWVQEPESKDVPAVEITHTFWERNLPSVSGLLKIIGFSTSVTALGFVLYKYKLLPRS
Experimental: as §1, §2

hMAO-B = target: T4, hMAO-B (Homo sapiens, UniProt P27338); experiment: MAO-B inhibition, fluorimetric method with kynuramine as substrate; assay type: biochemical; details: read-out: hMAO-B % Inhibition
T4 construct: purchased Sigma Aldrich (Milan, Italy); host or cells: baculovirus-infected insect cells
T4 sequence (P27338 1-520): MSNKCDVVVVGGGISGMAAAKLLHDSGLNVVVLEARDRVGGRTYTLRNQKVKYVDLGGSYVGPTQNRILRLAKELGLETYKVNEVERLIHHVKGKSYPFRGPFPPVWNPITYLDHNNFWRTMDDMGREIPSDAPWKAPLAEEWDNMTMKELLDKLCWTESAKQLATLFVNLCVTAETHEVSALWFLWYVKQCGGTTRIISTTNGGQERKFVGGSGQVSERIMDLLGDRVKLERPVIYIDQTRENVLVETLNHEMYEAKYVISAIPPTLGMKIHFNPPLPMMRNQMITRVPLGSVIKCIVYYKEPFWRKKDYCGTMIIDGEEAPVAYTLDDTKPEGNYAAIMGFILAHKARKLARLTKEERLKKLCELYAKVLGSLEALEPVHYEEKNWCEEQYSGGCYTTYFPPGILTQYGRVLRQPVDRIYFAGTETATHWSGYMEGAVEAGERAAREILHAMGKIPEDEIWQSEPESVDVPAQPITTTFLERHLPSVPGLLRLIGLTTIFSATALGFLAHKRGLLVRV
Experimental: as §1, §2

Structure (SMILES) | melting point | hBChE % Inhibition [1] | inhibition at 10 µM [2] | IC50 (hMAO-A) | inhibition at 10 µM (hMAO-A) | inhibition at 10 µM (hMAO-B) | inhibition at 10 µM [1]
CN(c1ccc2oc(=O)ccc2c1)S(=O)(=O)c1ccc(Cl)cc1 | 244 to 246 °C | – | – | – | – | – | –
Cc1ccc(S(=O)(=O)Nc2ccc3oc(=O)ccc3c2)cc1 [11a, 4-Methyl-N-(2-oxo-2H-chromen-6-yl)benzenesulfonamide] | – | ni | 55 ± 3% | 2.46 ± 0.67 µM | 76 ± 3% | 45 ± 2% | –
COc1ccc(S(=O)(=O)Nc2ccc3oc(=O)ccc3c2)cc1 [11b, 4-Methoxy-N-(2-oxo-2H-chromen-6-yl)benzenesulfonamide] | – | ni | 57 ± 4% | – | 26 ± 3% | 34 ± 3% | –
O=c1ccc2cc(NS(=O)(=O)c3ccc(Cl)cc3)ccc2o1 [11c, 4-Chloro-N-(2-oxo-2H-chromen-6-yl)benzenesulfonamide] | – | ni | 55 ± 3% | – | 9 ± 4% | 26 ± 4% | –
C#CCN(c1ccc2oc(=O)ccc2c1)S(=O)(=O)c1ccc(C)cc1 [13a, 4-Methyl-N-(2-oxo-2H-chromen-6-yl)-N-(prop-2-yn-1-yl)benzenesulfonamide] | – | ni | 60 ± 3% | – | 13 ± 5% | 12 ± 1% | –
C#CCN(c1ccc2oc(=O)ccc2c1)S(=O)(=O)c1ccc(OC)cc1 [13b, 4-Methoxy-N-(2-oxo-2H-chromen-6-yl)-N-(prop-2-yn-1-yl)benzenesulfonamide] | – | ni | 49 ± 3% | – | 22 ± 7% | 28 ± 2% | –
C#CCN(c1ccc2oc(=O)ccc2c1)S(=O)(=O)c1ccc(Cl)cc1 [13c, 4-Chloro-N-(2-oxo-2H-chromen-6-yl)-N-(prop-2-yn-1-yl)benzenesulfonamide] | – | ni | 48 ± 2% | – | 37 ± 5% | 20 ± 2% | –
Cc1ccc(S(=O)(=O)N(Cc2cn(CCn3ncc4ccc([N+](=O)[O-])cc43)nn2)c2ccc3oc(=O)ccc3c2)cc1 [14a, 4-Methyl-N-((1-(2-(6-nitro-1H-indazol-1-yl)ethyl)-1H-1,2,3-triazol-4-yl)methyl)-N-(2-oxo-2H-chromen-6-yl)benzenesulfonamide] | – | – | 51 ± 2% | 14.8 ± 1.6 µM | 76 ± 5% | 39 ± 3% | 48 ± 4%
COc1ccc(S(=O)(=O)N(Cc2cn(CCn3ncc4ccc([N+](=O)[O-])cc43)nn2)c2ccc3oc(=O)ccc3c2)cc1 [14b, 4-Methoxy-N-((1-(2-(6-nitro-1H-indazol-1-yl)ethyl)-1H-1,2,3-triazol-4-yl)methyl)-N-(2-oxo-2H-chromen-6-yl)benzenesulfonamide] | – | – | 44 ± 3% | 16.9 ± 1.9 µM | 81 ± 5% | 23 ± 4% | 31 ± 5%
O=c1ccc2cc(N(Cc3cn(CCn4ncc5ccc([N+](=O)[O-])cc54)nn3)S(=O)(=O)c3ccc(Cl)cc3)ccc2o1 [14c, 4-Chloro-N-((1-(2-(6-nitro-1H-indazol-1-yl)ethyl)-1H-1,2,3-triazol-4-yl)methyl)-N-(2-oxo-2H-chromen-6-yl)benzenesulfonamide] | – | ni | 42 ± 1% | 28 ± 2.2 µM | 67 ± 5% | 45 ± 1% | –
